Experiments:
[1] = tested on: extracellular domain of EGFR; conditions: cited from earlier work; for affinity for EGFR (in words): binding to domain I of the extracellular domain of EGFR
Description: (§1) We have previously reported the conjugation of BODIPYs to the EGFR-L1 peptide via traditional amidation reactions, and nucleophilic additions to isothiocyanato-functionalized fluorophores. Herein we report the use of click chemistry for conjugation of two EGFR-L1-derived peptides bearing an azide N-terminus (cycloL1.1 and L1.5) to alkynyl-functionalized BODIPYs. […] In previous work, we reported the conjugation of this peptide to a porphyrin [19], phthalocyanine, and BODIPY dyes, using either traditional amidation methodologies or nucleophilic addition to isothiocyanato-functionalized fluorophores. […] In order ...

[2] = tested on: HEp2 cells; assay: Dark cytotoxicity, CellTiter Blue assay; type: cell-based, human; conditions: 24 h incubation, up to 200 µM, darkness
Description: The dark toxicity of all compounds was determined in HEp2 cells at concentrations up to 200 µM, using a CellTiter Blue (CTB) assay to determine cell viability. BODIPYs 1 and 2 (lacking peptide) were included in this study for comparison purposes. […] This might be a result of the presence of the indole group, since it is a known pharmacophore and the basis of many drugs, such as indomethacin [44, 49].
(§2) For cellular studies, commercially available reagents and culture media were purchased from Life Technologies (Carlsbad, CA, USA) and human carcinoma HEp2 (ATCC CCL-23) cells were purchased from the American Type Culture Collection (ATCC) (Manassas, Virginia, USA). HEp2 cells were cultured and maintained at 37 °C under 5% CO2 and 95% humidity in minimum essential media (MEM) supplemented with 10% fetal bovine serum (FBS) and 1% penicillin-streptomycin (P/S).
Stock solutions (32 mM) for compounds 1, 2, 3, 4, and 5 were prepared using 100% DMSO as the solvent. […] Following the incubation period, cell viability was assessed by determining fluorescence intensity at 570/615 nm using a BMG FLUOstar Optima microplate reader (BMG Labtech, Cary, NC, USA). The fluorescence intensity was normalized to 100% for untreated cells and the results are expressed as a percentage of viable cells.

[3] = tested on: HEp2 cells; assay: Phototoxicity (~1 J·cm^−2), CellTiter Blue assay; type: cell-based, human; conditions: up to 100 µM, light dose ~1 J·cm^−2, CellTiter Blue
Description: In addition to dark toxicity, phototoxicity was assessed for the BODIPYs and their conjugates, under a low light dose of ~1 J·cm^−2 in human carcinoma HEp2 cells using the CTB assay to determine cell viability. Dose-dependent cell survival curves of each compound over the incubation period of 24 h are shown in Figure S20 (Supporting Information). […] Nevertheless, all conjugates are considered to have low phototoxicity in HEp2 cells at the low light dose used in this study.
as §2
HEp2 cells were exposed to working solutions of each compound up to 100 µM (0, 3.125, 6.25, 12.5, 25, 50, and 100 µM) and incubated for 24 h (5% CO2, 95% humidity, 37 °C). The loading medium was removed and the cells were washed with PBS solution. […] Cell viability was assessed as described above.

[4] = cited from earlier work
Description: as §1

[5] = tested on: HT-29 cells; assay: Competitive binding of conjugate 5 with cycloL1.1, BODIPY fluorescence; type: cell-based; conditions: HT-29 (~78% EGFR expression); conjugate 5 at 50 μM, cyclo(K(N3)larllt) 0.25 to 100 μM, 45 min, 37 °C, PBS; ex 614 / em 648 nm; triplicate
Description: In these studies, HT-29 (~78% EGFR expression), DLD-1 (~40% EGFR expression), and LOVO (~6% EGFR expression) were used.
Cells HT-29 (~78% EGFR) DLD-1 (~37% EGFR) and LOVO (~6% EGFR) with high, moderate, and low EGFR expressions, respectively, were used in these studies. About ten thousand cells of each cell line were coated in a 96 well clear bottom tissue culture black plate and incubated overnight at 37 °C with 5% CO2. […] PBS was used for dilution of compounds. The plate was then covered in aluminum foil and incubated at 37 °C with 5% CO2. After 45 min, each well was washed twice with 100 μL of PBS, and fluorescence was determined with a microplate reader using an excitation wavelength of 614 nm and an emission wavelength of 648 nm. Autofluorescence values were subtracted from each well. A plot of concentrations vs. relative fluorescence was plotted. Results in Figure 4 are expressed as ±S.E.

Molecule	affinity for EGFR (in words) [1]	stability in human serum (in words) [4]	also measured
LARLLT [EGFR-L1, EGFR-targeting peptide ligand reported in 2009 by Song et al, reference compound]			affinity for the extracellular domain of EGFR (in words) ([1]; both in vitro and in vivo): high affinity
CCC1=C(C)C2=C(c3ccc(OCc4cn(CCCC[C@H](N)C(=O)N[C@@H](CC(C)C)C(=O)N[C@@H](C)C(=O)N[C@@H](CCCNC(=N)N)C(=O)N[C@@H](CC(C)C)C(=O)N[C@@H](CC(C)C)C(=O)N[C@H](C(N)=O)[C@@H](C)O)nn4)cc3)c3c(C)c(CC)c(C)n3[B-](F)(F)[N+]2=C1C [Conjugate 3, 1,3,5,7-tetramethyl-2,6-diethyl-8-(4-phenoxymethyltriazole K(N3)LARLLT)-BODIPY]			dark toxicity, ranking in words [2]: least toxic; phototoxicity, ranking in words [3]: least toxic
K(N3)LARLLT [Conjugate L1.5, linear EGFR-L1-derived azido peptide]	increased affinity for EGFR compared to the parent peptide	enhanced stability in human serum	
CC(C)C[C@H]1NC(=O)[C@H](CCCCN=[N+]=[N-])NC(=O)[C@@H]([C@H](C)O)NC(=O)[C@@H](CC(C)C)NC(=O)[C@@H](CC(C)C)NC(=O)[C@@H](CCCNC(=N)N)NC(=O)[C@@H](C)NC1=O [cycloL1.1, cyclo(K(N3)larllt)]	high affinity	enhanced stability in human serum	competitive binding: change of BODIPY fluorescence intensity with added cyclic peptide [5]: able to replace conjugate 5 competitively

Reference: article PMC7865655, “Click Conjugation of Boron Dipyrromethene (BODIPY) Fluorophores to EGFR-Targeting Linear and Cyclic Peptides” (Molecules, 2021)
